From patent US5736556A, “Tropane-2-aldoxime derivatives as nevro transmitter reuptake inhibitors” (NeuroSearch A/S, priority 1994, dated 1998) come the findings set out here.

Broadly, the ED50 is the dose at which the effect has come halfway, by size or by number of responders. High values mean a need for a large dose, low ones an effect at a small dose. The pIC50 is the IC50 on a negative log10 scale, so that one unit is a factor of ten. Higher therefore signals a small IC50.

For experiment [1], the target named is dopamine transporter (Mus musculus, UniProt Q61327). In words: In vivo inhibition of ^3 H-WIN 35428 binding (striatum). The arrangement: from tissue; host or cells: striatum of living female NMRI mice; species or system mice (female NMRI). As to conditions: ip, mice, inhibition of specific ^3 H-WIN 35428 binding in striatum. As to the method: All test substances used are solutions or suspensions prepared in 10% TWEEN 80. Groups of three female NMRI mice (25 g) are injected i.p. with the test substance. […] Tissues are weighed and dissolved for 36 h with 1 ml 2% sodium-laurylsulfat. The solubilized tissue is then added 2 ml of scintillation cocktail, and the amount of radioactivity per mg of tissue is counted by conventional liquid scintillation counting. Groups of untreated mice serves as controls.
dopamine transporter, sequence (Q61327 whole entry): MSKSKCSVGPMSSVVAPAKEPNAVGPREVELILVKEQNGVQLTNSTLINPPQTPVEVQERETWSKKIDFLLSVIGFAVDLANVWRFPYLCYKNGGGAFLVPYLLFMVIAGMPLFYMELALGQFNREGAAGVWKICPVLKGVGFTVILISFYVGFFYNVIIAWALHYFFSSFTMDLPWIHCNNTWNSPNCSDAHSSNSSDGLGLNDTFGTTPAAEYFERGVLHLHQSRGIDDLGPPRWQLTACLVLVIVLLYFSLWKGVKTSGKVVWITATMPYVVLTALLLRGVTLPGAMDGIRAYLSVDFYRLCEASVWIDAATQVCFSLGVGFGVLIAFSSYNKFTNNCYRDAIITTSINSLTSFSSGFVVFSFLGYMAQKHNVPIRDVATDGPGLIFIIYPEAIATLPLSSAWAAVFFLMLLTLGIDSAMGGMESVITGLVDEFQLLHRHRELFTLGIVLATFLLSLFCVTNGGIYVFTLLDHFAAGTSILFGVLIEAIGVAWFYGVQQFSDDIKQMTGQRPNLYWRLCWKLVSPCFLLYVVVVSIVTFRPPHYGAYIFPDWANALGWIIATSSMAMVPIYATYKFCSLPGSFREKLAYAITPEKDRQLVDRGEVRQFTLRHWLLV
The ED50 value is determined from dose response curves.
ED50 =(administered dose, mg/kg)×1/(C0 /Cx -1), where C0 is specific binding in controls and Cx is the specific binding in mice treated with test substance.

The target of experiment [2] is T1, ^3 H-5-HT (serotonin) uptake (serotonin transporter) (Rattus norvegicus, UniProt P31652).
T1 construct: Cerebral cortices from male Wistar rats (150-200 g) are homogenized; from tissue; host or cells: P2 synaptosomes of cerebral cortex, male Wistar rats
T1 sequence (P31652 whole entry): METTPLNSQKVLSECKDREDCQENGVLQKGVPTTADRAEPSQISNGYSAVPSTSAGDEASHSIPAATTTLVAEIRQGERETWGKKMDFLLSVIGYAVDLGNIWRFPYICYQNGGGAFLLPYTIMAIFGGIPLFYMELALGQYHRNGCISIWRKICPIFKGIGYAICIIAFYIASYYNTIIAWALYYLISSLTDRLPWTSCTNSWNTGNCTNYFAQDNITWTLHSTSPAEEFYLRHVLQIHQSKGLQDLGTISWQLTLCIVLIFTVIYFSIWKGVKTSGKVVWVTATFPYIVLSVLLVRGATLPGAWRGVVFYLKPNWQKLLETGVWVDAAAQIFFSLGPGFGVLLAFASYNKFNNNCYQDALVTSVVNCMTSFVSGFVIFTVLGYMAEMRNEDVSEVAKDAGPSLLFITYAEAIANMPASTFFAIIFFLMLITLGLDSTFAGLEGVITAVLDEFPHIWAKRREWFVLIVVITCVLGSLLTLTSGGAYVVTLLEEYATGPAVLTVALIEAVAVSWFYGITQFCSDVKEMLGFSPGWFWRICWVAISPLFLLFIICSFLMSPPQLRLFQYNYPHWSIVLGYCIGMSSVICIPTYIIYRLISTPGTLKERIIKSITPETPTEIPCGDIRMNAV
The experiment is described as follows: In vitro inhibition of ^3 H-5-hydroxytryptamine (^3 H-5-HT, serotonin) uptake in cortical synaptosomes. The format is biochemical, rat (male Wistar). As to conditions: ^3 H-5-HT 1 nM, 30 min at 37° C. The text has this:
The compounds of the invention have also been tested for their ability to inhibit reuptake of dopamine(DA) noradrenalin(NA) and serotonin(5-HT) in synaptosomes.
Specific neurotransmitter transporters/uptake sites on nerve terminals presumably function to terminate neuronal signaling by removing the neurotransmitters dopamine, noradrenaline and serotonin, respectively, from the synaptic cleft. The activity of the transporter integral proteins can be measured in vitro by synaptosomal uptake of ^3 H-dopamine, ^3 H-noradrenaline and ^3 H-serotonine, respectively.
In vitro inhibition of ^3 H-5-hydroxytryptamine ^3 H-5-HT, serotonin) uptake in cortical synaptosomes
Tissue preparation: Preparations are performed at 0°-4° C. unless otherwise indicated. Cerebral cortices from male Wistar rats (150-200 g) are homogenized for 5-10 sec in 100 volumes of ice-cold 0.32M sucrose containing 1 mM pargyline using an Ultra-Turrax homogenizer. […]
Assay: Aliquots of 4.0 ml tissue suspension are added to 100 μl of test solution and 100 μl of ^3 H-5-HT (1 nM, final concentration), mixed and incubated for 30 min at 37° C. Non-specific uptake is determined using citalopram (1 μM, final concentration). […] The amount of radioactivity on the filters is determined by conventional liquid scintillation counting. Specific uptake is calculated as the difference between total uptake and non-specific uptake. […]

Experiment [3] has as its system immobility time of mice suspended by the tail. In words: Tail Suspension. The format is in vivo, mice (female NMRI). As to conditions: Mus musculus, 0.5 h, oral, 30 min before test, dose reducing the immobility to 100 sec. How it is done: A decrease in the immobility time by mice suspended in their tail is seen after systemic administration of central stimulants and by antidepressants (Steru, L., Chermat, R., Thierry, B. & Simon, P. (1985) The tail suspension test: A new method for screening antidepressants in mice. Psychopharmacology 85:367-370.).
Female NMRI mice (20-25 g) habituated to the room (12 hours light/dark) for at least 16 hours and housed 25 per cage are used. The mice are suspended by the tail with adhesive tape to a rod 30 cm above the lab. bench 30 min after an oral administation of vehicle or drug. For the next 6 min the accumulated duration of immobility defined as no movements by the body or extremities (however head movements are not defined as movements) are noted, Six mice per dose are used.
Saline or vehicle treated mice have immobility time scores between 160-180 sec in average. An ED50 -value is calculated by graphical interpolation from at least 3 doses as the dose reducing the immobility to 100 sec.

pIC50: −log10 of the molar value. Where a name gives a salt, the structure may show the parent alone.

For the compound `CON=C[C@@H]1[C@@H](c2ccc(Cl)c(Cl)c2)C[C@@H]2CC[C@H]1N2C` [(1R,2R,3S)-3-(3,4-dichlorophenyl)-tropane-2-O-methyl-aldoxime, H2 SO4], the ED50 in experiment [1] stood at 0.9 mg/kg; in experiment [3], 0.1 mg/kg. For the same compound, the pIC50 in experiment [2] is 7.89.
As for `CON=C[C@@H]1[C@@H](c2ccc(Cl)c(Cl)c2)C[C@@H]2CC[C@H]1N2` [(1R,2R,3S)-N-Normethyl-3-(3,4-dichlorophenyl)tropane-2-O-methyl-aldoxime, hydrochloride], the ED50 in experiment [1] amounted to 1.4 mg/kg; in experiment [3], 0.95 mg/kg. In experiment [2], the pIC50 is 8.77.
